From patent US11491232B2, “Lactuloside compounds and preparation and use thereof” (Fruithy Holdings Limited, priority 2017, dated 2022)
Where two headings read alike, the source gives them in different places.

What was measured:
[1] = system: ulcerative colitis models of Wistar rat induced by enema with trinitrobenzenesulfonic acid (TNBS); assay: Pharmacodynamic effect of intragastric administration in ulcerative colitis models of Wistar rat induced by TNBS enema; assay type: in vivo; conditions: Wistar rats; for colon coefficient on Day 8 after modeling compared with the model control group / histopathological score of colon on Day 8 after modeling compared with the model control group / body weight change (increase) on Day 8 after modeling as compared to the model group: intragastric qd × 7, Compound 1 1.91 mg/kg; for colon coefficient on Day 8 after modeling compared with the model control group: prednisolone 1 mg/kg (FIG. 6); for histopathological score of colon on Day 8 after modeling compared with the model control group: prednisolone 1 mg/kg (FIG. 7); for body weight change (increase) on Day 8 after modeling as compared to the model group: prednisolone 1 mg/kg, only Compound 1 vs model significant (FIG. 5)
Description: Comparison research among therapeutic effects of Compound 1 and a commercial formulation of prednisolone (prednisolone tablet, produced by Wuhan Yuancheng Co-Creation Technology Co., Ltd.) on ulcerative colitis models of Wistar rats after intragastric administration was carried out to further evaluate the improvement in main therapeutic effect indexes of the intragastric perfusion therapy of Compound 1 and compare it with that of treatment group with equivalent moles of a commercial formulation of prednisolone, thereby providing pharmacodynamic support for further development of Compound 1.
According to the experiment, 40 male Wistar rats (180-220 grams) were purchased, and randomly divided into four groups (i.e., physiological saline control group, model control group, prednisolone group and Compound 1 group), and there were 10 animals in each group. Except the physiological saline control group, ulcerative colitis animal models were produced by once enema administration of a mixed solution of 2.5% TNBS-50% ethanol (containing 80 mg/kg TNBS) to experiment animals in other three groups in an amount of 3.2 ml/kg. For the physiological control group, physiological saline was once administered by enema in an amount of 3.2 ml/kg. At 24 h after the modeling administration, the corresponding solvent control or therapeutic drugs were administered by enema depending on animal groups (qd×7d (one dose per day, for 7 days)), and detailed grouping and administration information is as shown in Table 14 below.
During the investigation, the main indexes to be observed include: death of animals, clinical observation, body weight, colon coefficient, histopathological examination of animals, and so on. For each experiment group, on Day 8 after modeling, animals were sacrificed. Colon tissues were collected to calculate the colon coefficient (colon coefficient=colon weight (g)/animal body weight (g) * 100%).

[2] = Systemic pharmacokinetics (plasma) after oral administration to SD rats; assay type: in vivo
Description: (§2) For the experiment animals of Group 1, Group 2 and Group 3, at each time point of 30 min, 1 h, 2 h, 3 h, 4 h, 5 h, 6 h, 8 h, and 10 h after the administration, 4 animals were randomly selected and sacrificed. The blood samples were collected, and the contents in the stomach and various segments of the intestine tract (the first half segment of the small intestine, the last half segment of the small intestine, the first third segment of the colon (including cecum), and the last two thirds segment of the colon) were weighed. […] 4 animals of Group 4 were sacrificed at the time point of 10 h. The blood samples and the contents in various segments of the gastrointestinal tract were collected as blank control.

[3] = Test on stability in mediums in vitro (buffer solutions with different pH, simulated intestinal fluid, simulated gastric fluid); assay type: physicochemical
Description: At 37° C., Compound 17 was incubated in different mediums (buffer solutions with different pH, a simulated intestinal fluid containing pancreatin, and simulated gastric fluid containing pepsin).
(§1) Other typical example compounds were tested for stability according to the above method, and the test results are shown in Table 8 below.

[4] = rat, in vivo; for Concentration of prednisolone in the content, The first half segment of Small intestine / Concentration of prednisolone in the content, The last half segment of Small intestine: male, Sprague-Dawley (SD)
Description: as §2

[5] = system: colon flora; assay: Stability in the presence of colon flora (content in colon of rat); assay type: in vitro ADME, SD rat; conditions: male, Sprague-Dawley (SD), rat, 1 h, pH 6.8
Description: A phosphate buffer solution with a pH of 7.0 was formulated, and then CO2 was introduced to the solution to adjust the pH to 6.8. Then, the content in colon of a male SD rat (body weight: 180-220 g) was placed in a water bath at 37° C., and added into the phosphate buffer solution with a pH of 6.8 as prepared above under the protection of N2 to a concentration of 20% (w/v). The buffer solution was kept in an oxygen-free environment. Then, the test Compound 17 was added to the buffer solution, and the solution was stirred uniformly.
Supernatant was analyzed with HPLC, where the amount of each ingredient was calculated by normalization.
Note: in the above table, “T14.148 (%)” represents the percentage of peak area of the material with a retention time of 14.148 min “T14.713 (%)” represents the percentage of peak area of the material with a retention time of 14.713 min. “T16.392 (%)” represents the percentage of peak area of the material with a retention time of 16.392 min. “T22.624 (%)” represents the percentage of peak area of the material with a retention time of 22.624 min.
as §1

[6] = intragastric administration, FIG. 3
[7] = Simulated intestinal fluid (containing pancreatin) (pH 6.8) (8 h)

C[C@]12C=CC(=O)C=C1CC[C@@H]1[C@@H]2[C@@H](O)C[C@@]2(C)[C@H]1CC[C@]2(O)C(=O)COC1(CO)O[C@H](CO)[C@@H](O[C@@H]2O[C@H](CO)[C@H](O)[C@H](O)[C@H]2O)[C@@H]1O (stereo partly drawn) [Compound 1, (11β)-11,17-dihydroxyl-21-{[4-O-(β-D-galactopyranosyl)-D-fructofuranosyl]oxy}pregna-1,4-diene-3,20-dione]
day after modeling on which the body weight began to rise ([1]; TNBS model, intragastric qd × 7, 1.91 mg/kg): 4 days
colon coefficient on Day 8 after modeling compared with the model control group [1]: significantly lower than that for the model control group (p<0.05)
histopathological score of colon on Day 8 after modeling compared with the model control group [1]: significantly lower than that for the model control group (p<0.05)
body weight change (increase) on Day 8 after modeling as compared to the model group [1]: statistically significant
plasma prednisolone Cmax as compared to free prednisolone group [2, 6]: very low
plasma prednisolone time to peak as compared to free prednisolone group [2, 6]: significantly delayed
concentration at 0.5 h ([2]; male, Sprague-Dawley, rat, plasma, oral, 9.55 mg/kg intragastric, 0.5 h (only time point with detection), read-out: concentration of Compound 1 in the rat plasma): 10.4 ng/mL
Percentage of the example compound remaining (Composition, %) [3, 7]: 99.0%
Percentage of the released active drug (prednisolone, dexamethasone, budesonide, apremilast or prucalopride) (Composition, %) [3, 7]: 0.2%
Percentage of the example compound remaining (Composition, %) ([3]; Water (pH 1.2) (2 h)): 30.4%
Percentage of the released active drug (prednisolone, dexamethasone, budesonide, apremilast or prucalopride) (Composition, %) ([3]; Water (pH 1.2) (2 h)): 67.2%
passage through the gastrointestinal tract of a mammal (absorption and hydrolysis) [4]: without being absorbed significantly by the gastrointestinal tract and hydrolyzed significantly by endogenous enzymes of a mammal host
factor of increase of maximum concentrations (Cmax) of local prednisolone in the cecum and colon sites as compared to prednisolone group ([4]; po): 65-360
total exposure (AUC) of local prednisolone in the cecum and colon sites compared with prednisolone group ([4]; po): much higher than the prednisolone (original form) group
Percentage of the example compound remaining (Composition, %) [5]: 22.1%
Percentage of the released active drug (prednisolone, dexamethasone, budesonide, apremilast or prucalopride) (Composition, %) [5]: 39.7%

C[C@]12C=CC(=O)C=C1CC[C@@H]1[C@@H]2[C@@H](O)C[C@@]2(C)[C@H]1CC[C@]2(O)C(=O)CO [Prednisolone, prednisolone]
colon coefficient on Day 8 after modeling compared with the model control group [1]: not statistically significant
histopathological score of colon on Day 8 after modeling compared with the model control group [1]: not statistically significant
body weight change (increase) on Day 8 after modeling as compared to the model group [1]: higher than that for the model group
Concentration of prednisolone in the content, The first half segment of Small intestine ([4]; 0.5 h): 16.66 ± 2.89 nmol/g
Concentration of prednisolone in the content, The last half segment of Small intestine ([4]; 0.5 h): 16.27 ± 3.34 nmol/g
Concentration of prednisolone in the content, The first half segment of Small intestine ([4]; 1 h): 19.20 ± 3.44 nmol/g
Concentration of prednisolone in the content, The last half segment of Small intestine ([4]; 2 h): 19.81 ± 2.77 nmol/g
Concentration of prednisolone in the content, The first half segment of Small intestine ([4]; 3 h): 21.16 ± 2.18 nmol/g
Concentration of prednisolone in the content, The last half segment of Small intestine ([4]; 3 h): 20.47 ± 3.08 nmol/g
Concentration of prednisolone in the content, The first half segment of Small intestine ([4]; 4 h): 17.38 ± 3.04 nmol/g
Concentration of prednisolone in the content, The last half segment of Small intestine ([4]; 4 h): 13.27 ± 2.09 nmol/g
Concentration of prednisolone in the content, The first half segment of Small intestine ([4]; 5 h): 7.34 ± 1.38 nmol/g
Concentration of prednisolone in the content, The last half segment of Small intestine ([4]; 5 h): 6.94 ± 1.35 nmol/g
Concentration of prednisolone in the content, The first half segment of Small intestine ([4]; 6 h): 0.36 ± 0.05 nmol/g
Concentration of prednisolone in the content, The last half segment of Small intestine ([4]; 6 h): 0.32 ± 0.06 nmol/g
Concentration of prednisolone in the content, The last half segment of Small intestine ([4]; 8 h): 0.04 ± 0.01 nmol/g
Cmax value of prednisolone in the content, Stomach ([4]; po, 5 mg/kg): 370.53 nmol/g
Cmax value of prednisolone in the content, The first half segment of Small intestine ([4]; po, 5 mg/kg): 51.92 nmol/g
Cmax value of prednisolone in the content, The first third segment (including cecum) of Colon ([4]; po, 5 mg/kg): 0.70 nmol/g
Cmax value of prednisolone in the content, The last half segment of Small intestine ([4]; po, 5 mg/kg): 22.05 nmol/g
Cmax value of prednisolone in the content, The last two thirds segment of Colon ([4]; po, 5 mg/kg): 0.14 nmol/g
